Values after ≈ are worked out from the molar mass of the structure shown. Values joined by “and” are separate entries in the source; they are usually repeats but may differ in a detail not shown here. Identical values can stand only once. Like-named read-outs stand apart in the source and are kept apart here.
Key:
[1] = system: Aspergillus fumigatus ATCC 96918; assay: Broth macrodilution MIC/MFC, filamentous fungi; format: cell-based; conditions: for MFC / MIC: Aspergillus fumigatus
Description: (§1) Susceptibility testing of filamentous fungi was also conducted. Broth macrodilution susceptibility testing of P. lilacinus, Rhizopus spp. and Aspergillus spp. was performed in accordance with a proposed standardized procedure with slight modification. To induce conidium and sporangiospore formation, fungi were grown on PDA slants at 35° C. for 6 days (P. lilacinus, Rhizopus spp., all Aspergillus species except A. nidulans) or 3 days (A. nidulans). Fungal slants were covered with sterile 0.85% NaCl (P. lilacinus, Rhizopus spp., all Aspergillus species except A. nidulans) or 0.05% Tween 80 (A. nidulans), and suspensions were made by gently probing the colonies with the tip of a sterile Pasteur pipette. The resulting mixture of hyphal fragments and conidia or sporangiospores was withdrawn and transferred to a sterile clear microcentrifuge tube, and heavy particles were allowed to settle for 10 min. The upper homogenous suspension was transferred to a sterile microcentrifuge tube, vortexed for 15 s, adjusted spectrophotometrically, and diluted in sterile 0.165 M MOPS-buffered RPMI medium, pH 7.0, to yield final inocula ranging from 0.5-2.5×10^3 cfu/ml. Susceptibility to TMPN was then determined by broth macrodilution as described above for yeast isolates. MICs were read after 48 h The MIC was defined as the lowest concentration of TMPN that inhibited all visible growth of the test organism (optically clear).
(§2) Minimum fungicidal concentrations (MFCs) were determined by subculturing 0.1 ml from each tube with no visible growth in the MIC broth macrodilution series onto the appropriate drug-free plates (see Fungal Strains section above).
(§3) Possible host effects were also evaluated. Broth macrodilution assays were performed with RPMI medium prepared at pH 5, pH 6, and pH 7, and in RPMI medium with and without 50% normal human serum (Lampire Biological Labs). The pH experiments were performed twice on separate days.

[2] = system: C. albicans ATCC 90028; assay: Broth macrodilution MIC/MFC; format: cell-based, Candida albicans; conditions: for MFC: Candida albicans ATCC 90028; for MIC: Candida albicans
Description: (§4) TMPN was screened against yeasts by the broth macrodilution assay according to the NCCLS [7]. Yeasts were suspended and diluted as recommended to yield final inocula ranging from 0.5-2.5×10^3 cfu/ml. Tests were performed in sterile 12 by 75 mm plastic tubes containing two-fold dilutions of TMPN in 0.165 M morpholinepropanesulfonic acid buffered RPMI 1640 medium (pH 7.0). One tube was again left drug free (but contained an equivalent volume of DMSO) for a turbidity control. Tubes were incubated without agitation at the appropriate temperature (see Fungal Strains section above). MICs were determined after 72 h for Cryptococcus and after 48 h for other yeast genera. The MIC was defined as the lowest concentration of TMPN that inhibited all visible growth of the test organism (optically clear).
as §2, §3

[3] = system: T. mucoides ATCC 90046; assay: Broth macrodilution MIC/MFC; format: cell-based, Trichosporon mucoides
Description: as §4, §2

[4] = system: T1, bovine brain tubulin; assay: Tubulin polymerization assay; format: biochemical; conditions: 1 mg/ml tubulin; 20 min incubation at 30° C.
T1 construct: Electrophoretically homogeneous bovine brain tubulin [12]
Description: Electrophoretically homogeneous bovine brain tubulin [12] was used in studies to evaluate the effects of TMPN on in vitro tubulin polymerization and the binding of […] (Dupont-NEN) to tubulin. These studies were performed as described previously. In the polymerization assay, varying drug concentrations were added to 1 mg/ml tubulin to determine the amount of drug that would inhibit the extent of the reaction by 50% (20 min incubation at 30° C.) (IC50 value). In the colchicine binding assay, the effect of varying drug concentrations on the binding of 2 μg/ml colchicine to 100 μg/ml tubulin was measured after 10 min at 37° C. (control reaction about 50% complete).

[5] = system: A. flavus (ASU culture collection); assay: Broth macrodilution MIC/MFC, filamentous fungi; format: cell-based, Aspergillus flavus
Description: as §1, with “The upper homogenous suspension was transferred to a sterile microcentrifuge tube, vortexed for 15 s, adjusted spectrophotometrically, and diluted in sterile 0.165 M MOPS-buffered RPMI medium, pH 7.0, to yield final inocula ranging from 0.5-2.5×10^3 cfu/ml.” left out, “MICs were read after 48 h The MIC was defined as the lowest concentration of TMPN that inhibited all visible growth of the test organism (optically clear).” left out
as §2

[6] = system: all bacteria; assay: NCCLS broth macrodilution assay, antibacterial; format: cell-based; conditions: Neisseria gonorrhoeae; all bacteria (single exception N. gonorrhoeae)
Description: (§5) The antibacterial activity of TMPN was also assessed by the NCCLS broth macrodilution assay. Isolated colonies from overnight cultures were suspended and diluted as recommended to yield final inocula of approximately 5×10^5 cfu/ml. Tests were performed in sterile plastic tubes (12 by 75 mm) containing twofold dilutions of TMPN in gonococcal typing broth (Neisseria), Mueller Hinton II (MHII) (cation adjusted) broth containing 3% lysed horse blood (Streptococcus) or MHII broth (all other bacteria). One tube was left drug-free (but contained an equivalent volume of DMSO) for a turbidity control. Tubes were incubated without agitation at 37° C. with 5% CO2 (Streptococcus, Neisseria), or at 35° C. (remaining bacteria). MICs were determined after 24 h for all bacteria except Micrococcus, which was read at 48 h. The MIC was defined as the lowest concentration of drug that inhibited all visible growth of the test organism (optically clear).

[7] = system: N. gonorrhoeae; assay: NCCLS broth macrodilution assay, antibacterial; format: cell-based; conditions: Neisseria gonorrhoeae
Description: as §5

[8] = system: C. neoformans ATCC 14116; assay: Broth macrodilution MIC/MFC; format: cell-based, Cryptococcus neoformans
Description: as §4, §2

[9] = system: C. neoformans ATCC 32045; assay: Broth macrodilution MIC/MFC; format: cell-based, Cryptococcus neoformans
Description: as §4, §2

[10] = Aspergillus fumigatus ATCC 96918
[11] = ATCC96918, Aspergillus fumigatus ATCC 96918, 50% human serum
[12] = ATCC96918, Aspergillus fumigatus ATCC 96918, no serum
[13] = ATCC96918, pH 5, Aspergillus fumigatus ATCC 96918, pH 5
[14] = ATCC96918, pH 5, Aspergillus fumigatus ATCC 96918, pH 5, repeat experiment
[15] = ATCC96918, pH 6, Aspergillus fumigatus ATCC 96918, pH 6
[16] = ATCC96918, pH 6, Aspergillus fumigatus ATCC 96918, pH 6, repeat experiment
[17] = ATCC96918, pH 7, Aspergillus fumigatus ATCC 96918, pH 7
[18] = ATCC96918, pH 7, Aspergillus fumigatus ATCC 96918, pH 7, repeat experiment

## COc1cc(C=C[N+](=O)[O-])cc(OC)c1OC [TMPN, 1-(3′,4′,5′-trimethoxyphenyl)-2-nitro-ethylene]
[1]; [10]
  MFC Range: >64 µg/mL
  MIC Range: 8 µg/mL (≈ 33.4 µM)
[1]; [11]
  MFC: > 64 µg/mL
  MIC: 16 µg/mL (≈ 66.9 µM)
[1]; [12]
  MFC: 16 µg/mL (≈ 66.9 µM)
  MIC: 8 µg/mL (≈ 33.4 µM)
[1]; [13]
  MFC: 32 µg/mL (≈ 134 µM)
  MIC: 4 µg/mL (≈ 16.7 µM)
[1]; [14]
  MFC: > 64 µg/mL
  MIC: 8 µg/mL (≈ 33.4 µM)
[1]; [15]
  MFC: 32 µg/mL (≈ 134 µM)
  MIC: 4 µg/mL (≈ 16.7 µM)
[1]; [16]
  MFC: > 64 µg/mL
  MIC: 8 µg/mL (≈ 33.4 µM)
[1]; [17]
  MFC: 32 µg/mL (≈ 134 µM)
  MIC: 4 µg/mL (≈ 16.7 µM)
[1]; [18]
  MFC: > 64 µg/mL
  MIC: 8 µg/mL (≈ 33.4 µM)
[2]; ATCC90028, no serum, read-out: MFC
  MFC: 32 µg/mL (≈ 134 µM)
[2]; ATCC90028, pH 5, read-out: MFC
  MFC: 32 µg/mL (≈ 134 µM)
[2]; ATCC90028, pH 6, read-out: MFC
  MFC: 32 µg/mL (≈ 134 µM)
[2]; ATCC90028, pH 7, read-out: MFC
  MFC: 32 µg/mL (≈ 134 µM)
[2]; C. albicans ATCC 90028
  MFC Range: 32 µg/mL (≈ 134 µM)
  MIC Range: 32 µg/mL (≈ 134 µM)
[2]; 20 μg/ml bovine serum albumin
  MFC: 32 (32) μg/ml
[2]; 40 μg/ml bovine serum albumin
  MFC: 32 µg/mL (≈ 134 µM)
[2]; no bovine serum albumin
  MFC: 32 (32) μg/ml
[2]; pH 5, repeat experiment
  MFC: 32 (32), 32 (32) μg/ml
[2]; pH 6, repeat experiment
  MFC: 32 (32), 32 (32) μg/ml
[2]; pH 7, repeat experiment
  MFC: 32 (32), 32 (32) μg/ml
[2]; ATCC90028, Candida albicans ATCC 90028, 20 μg/ml bovine serum albumin
  MIC: 32 µg/mL (≈ 134 µM)
[2]; ATCC90028, Candida albicans ATCC 90028, 40 μg/ml bovine serum albumin
  MIC: 16 µg/mL (≈ 66.9 µM)
[2]; ATCC90028, Candida albicans ATCC 90028, 50% human serum
  MIC: > 64 µg/mL
[2]; ATCC90028, Candida albicans ATCC 90028, no bovine serum albumin
  MIC: 32 µg/mL (≈ 134 µM)
[2]; ATCC90028, Candida albicans ATCC 90028, no serum
  MIC: 32 µg/mL (≈ 134 µM)
[2]; ATCC90028, pH 5, Candida albicans ATCC 90028, pH 5
  MIC: 32 µg/mL (≈ 134 µM)
[2]; ATCC90028, pH 5, Candida albicans ATCC 90028, pH 5, repeat experiment
  MIC: 32 µg/mL (≈ 134 µM)
[2]; ATCC90028, pH 6, Candida albicans ATCC 90028, pH 6
  MIC: 32 µg/mL (≈ 134 µM)
[2]; ATCC90028, pH 6, Candida albicans ATCC 90028, pH 6, repeat experiment
  MIC: 32 µg/mL (≈ 134 µM)
[2]; ATCC90028, pH 7, Candida albicans ATCC 90028, pH 7
  MIC: 32 µg/mL (≈ 134 µM)
[2]; ATCC90028, pH 7, Candida albicans ATCC 90028, pH 7, repeat experiment
  MIC: 32 µg/mL (≈ 134 µM)
[3]
  MFC Range: 32 µg/mL (≈ 134 µM)
  MIC Range: 16 µg/mL (≈ 66.9 µM)
[4]
  IC50 for inhibition of the extent of tubulin assembly: 0.60 µg/mL and 0.60 ± 0.07 µg/mL
[5]
  MFC Range: >64 µg/mL
  MIC Range: 16 µg/mL (≈ 66.9 µM)
[6]
  MIC: > 64 µg/mL
[7]
  MIC: 4 µg/mL (≈ 16.7 µM)
[8]
  MFC Range: 16 µg/mL (≈ 66.9 µM)
  MIC Range: 8 µg/mL (≈ 33.4 µM)
[9]
  MFC Range: 4 µg/mL (≈ 16.7 µM)
  MIC Range: 4 µg/mL (≈ 16.7 µM)
